Some test systems named below: BT-549 breast; TK-10 renal; HT29 colon; SF-295 CNS; EKVX NSCLC; NCI-H23 lung; RXF 393 renal; SF-268 CNS; SF-539 CNS; HOP-62 NSCLC.
Holding throughout (assay): NCI-60 cell line screen, 48 h

The source of these data is PubChem BioAssay (NCI).

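A five-concentration, 48-hour dose response in 96-well plates underlies each endpoint, interpolated linearly between surrounding concentrations. Abbreviation: GI50, concentration required for 50% inhibition of growth. TGI is the concentration that stops growth completely.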

Turning to `C/C=C\C(C)=C/C(C)C(=O)CC(O)CC1CC(=O)NC(=O)C1` (centres undefined), the TGI in the test on BT-549 breast, in the test with TK-10 renal, in the test with HT29 colon, in the test on SF-295 CNS, in the test on EKVX NSCLC and with NCI-H23 lung was more than 100 µM each time. Also, the TGI in the test on RXF 393 renal, in the test on SF-268 CNS, in the test with SF-539 CNS and in the test on HOP-62 NSCLC was more than 100 µM in each case.

For `CCS(=O)(=O)Nc1ccc(Oc2ccc(F)cc2F)c(-c2cn(C)c(=O)c3[nH]ccc23)c1`, the GI50 was 0.366 µM with BT-549 breast; less than 0.01 µM in the test with TK-10 renal; less than 0.01 µM in the test with HT29 colon; 0.0742 µM with SF-295 CNS; 0.196 µM in the test on EKVX NSCLC; 0.0956 µM with NCI-H23 lung. Further, the GI50 with RXF 393 renal was 1.62 µM; with SF-268 CNS, 1.57 µM; in the test on SF-539 CNS, 0.0135 µM; in the test on HOP-62 NSCLC, less than 0.0245 µM. Further, the TGI was determined as 21.3 µM in the test on BT-549 breast; 1.25 µM in the test on TK-10 renal; 14.1 µM with HT29 colon; 20.1 µM in the test on SF-295 CNS; 31.9 µM in the test on EKVX NSCLC; 13.5 µM with NCI-H23 lung. The TGI in the test on RXF 393 renal came out at 14.1 µM; in the test on SF-268 CNS it was 53.2 µM; in the test with SF-539 CNS, 16.1 µM; in the test on HOP-62 NSCLC, 26.2 µM.

On to `CCCCCCCCCCCCOC1C(C(COC2OC(C(O)CO)C3OC(C)(C)OC23)OC(=O)Nc2ccc([N+](=O)[O-])cc2)OC2OC(C)(C)OC21` (centres undefined), for which the GI50 in the test with BT-549 breast is 1.9 µM; in the test with TK-10 renal, 2.68 µM; with HT29 colon, 2.57 µM; in the test with SF-295 CNS it was 2.21 µM; in the test on EKVX NSCLC, 2.34 µM; with NCI-H23 lung, 12.6 µM. For the same compound, the GI50 in the test with RXF 393 renal is 2.71 µM; with SF-268 CNS it was 7.34 µM; in the test on SF-539 CNS it was 4.15 µM; with HOP-62 NSCLC, 1.95 µM. For the same compound, the TGI in the test on BT-549 breast was 5.57 µM; in the test with TK-10 renal, 7.29 µM; in the test with HT29 colon, 7.94 µM; with SF-295 CNS, 5.48 µM; with EKVX NSCLC, 6.21 µM; with NCI-H23 lung, 28.2 µM. The TGI in the test on RXF 393 renal is 6.57 µM; in the test with SF-268 CNS it was 22.1 µM; in the test on SF-539 CNS it was 14.7 µM; in the test with HOP-62 NSCLC, 3.8 µM.

As for `COc1ccc(/C(C)=C(\c2ccc(Cl)cc2)c2ccc(OCCN3CCCCC3)cc2)cc1F`, the GI50 was 3.11 µM in the test with BT-549 breast; 3.49 µM in the test with TK-10 renal; 0.65 µM in the test with HT29 colon; 2.75 µM in the test on SF-295 CNS; 4.78 µM with EKVX NSCLC; 2.78 µM in the test on NCI-H23 lung. The GI50 with RXF 393 renal was 2.84 µM; in the test on SF-268 CNS, 5.96 µM; in the test on SF-539 CNS, 2.42 µM; in the test with HOP-62 NSCLC it was 3.34 µM. The TGI was 7.47 µM in the test with BT-549 breast; 9.12 µM with TK-10 renal; more than 16.7 µM with HT29 colon; 5.52 µM with SF-295 CNS; more than 16.7 µM in the test on EKVX NSCLC; 7.09 µM with NCI-H23 lung. The TGI is 5.75 µM in the test on RXF 393 renal, more than 16.7 µM with SF-268 CNS, 4.67 µM with SF-539 CNS and 6.58 µM in the test with HOP-62 NSCLC.

On to `CC(=O)OC1C(OC/C2=C/C3[C@@H](C(C)C)CC=C(C)[C@@H]3CC(OC(=O)/C=C/c3cn(C)cn3)[C@]3(C)C=C[C@@]2(O)O3)OCC(O)C1O` (some centres undefined), for which the GI50 with BT-549 breast is 0.0129 µM; in the test on TK-10 renal, 0.465 µM; with HT29 colon it was 0.0124 µM; in the test with SF-295 CNS, 0.03 µM; in the test on EKVX NSCLC, 0.0707 µM; with NCI-H23 lung, 0.0227 µM. Besides, the GI50 in the test with RXF 393 renal is 0.0149 µM; with SF-268 CNS it was 0.0336 µM; in the test with SF-539 CNS, 0.0123 µM; in the test on HOP-62 NSCLC it was 0.0246 µM. For the same compound, the TGI is 0.136 µM with BT-549 breast; more than 50 µM in the test on TK-10 renal; more than 50 µM in the test with HT29 colon; 0.296 µM in the test on SF-295 CNS; more than 50 µM in the test on EKVX NSCLC; more than 50 µM in the test with NCI-H23 lung. Also, the TGI was 0.0741 µM with RXF 393 renal, more than 50 µM in the test on SF-268 CNS and 0.0598 µM in the test on SF-539 CNS.

As to `Cc1ccc(S(=O)(=O)NC(CCCCN)C(=O)CCl)cc1` (centres undefined), the GI50 was 27.6 µM in the test on BT-549 breast; 90.5 µM with TK-10 renal; more than 100 µM in the test on HT29 colon; 27.2 µM in the test on SF-295 CNS; 27.3 µM in the test with EKVX NSCLC; more than 100 µM in the test on NCI-H23 lung. The GI50 with RXF 393 renal is 54.2 µM; in the test with SF-268 CNS, 67.5 µM; in the test on SF-539 CNS it was 22.3 µM; in the test with HOP-62 NSCLC, 63.5 µM. Besides, the TGI is 89.6 µM in the test with BT-549 breast; more than 100 µM in the test on TK-10 renal; more than 100 µM with HT29 colon; 77 µM in the test on SF-295 CNS; 93.4 µM in the test on EKVX NSCLC; more than 100 µM in the test on NCI-H23 lung. The TGI in the test on RXF 393 renal was more than 100 µM; with SF-268 CNS it was more than 100 µM; in the test on SF-539 CNS it was 53.6 µM; in the test on HOP-62 NSCLC, more than 100 µM.

Turning to `N#Cc1ccccc1C#C/C=C\C#Cc1cnccn1`, the GI50 is 35.4 µM in the test on BT-549 breast; 13 µM in the test with TK-10 renal; 8.72 µM in the test with HT29 colon; 6 µM in the test with SF-295 CNS; 44.1 µM in the test with EKVX NSCLC; 7.04 µM in the test with NCI-H23 lung. Besides, the GI50 is more than 37 µM in the test with RXF 393 renal, 48.9 µM with SF-268 CNS, 9.5 µM with SF-539 CNS and 29.3 µM with HOP-62 NSCLC. The TGI in the test on BT-549 breast is more than 100 µM; in the test on TK-10 renal it was 63.6 µM; in the test on HT29 colon, more than 100 µM; in the test with SF-295 CNS, more than 25 µM; with EKVX NSCLC it was more than 100 µM; in the test with NCI-H23 lung it was 22.4 µM. The TGI in the test with RXF 393 renal is more than 74.1 µM; in the test with SF-268 CNS, more than 100 µM; in the test on SF-539 CNS it was 46.2 µM; in the test on HOP-62 NSCLC it was more than 64.6 µM.
